This is an account of results in patent US20250000766A1, “ANTIMICROBIAL ESTERS FOR SKIN AND SCALP CARE” (SYMRISE AG, priority 2021, published 2025).

One assay relates to M. globosa. More on the design: unit not given here. The conditions noted are these: cited from earlier work.
Another assay relates to M. sympodialis. More on the design: unit not given here. Particulars: cited from earlier work.
In another assay the test system is M. restricta. On the set-up: unit not given here. Particulars: M. restricta strain 7877; cited from earlier work.
The next assay deals with M. sympodialis DSM 6171. The experiment in a line: Agar dilution test, growth inhibition (MIC) of M. sympodialis DSM 6171. It counts as cell-based. Particulars: MLN agar, 7 days at 30° C. The method, then: (§1) The fatty acid esters and their mixtures were tested for growth inhibition against Malassezia. The following reference strains were included:
(§2) Tests were performed in 6 well plates on solid media using agar dilution tests. Stock solutions of test substances were prepared in DMSO. Lower test concentrations were obtained by diluting stock solutions in DMSO.
(§3) Briefly, microorganisms are inoculated on modified Leeming & Notman (MLN) agar. A well grown plate is harvested in a 0.8% NaCl solution. Dilutions of test substances are prepared according to the concentration range required for the test. 5 μl of the test sample and controls are complemented with 500 μl MLN agar and mixed by shaking. 200 μl of liquid MLN per well are added onto the solidified agar. Afterwards, 20 μl of inoculum solution is added, with except of the blanks, and samples are incubated for 7 days at 30° C. Typical concentrations to be tested are 5000 ppm, 2500 ppm, and 1:1 dilutions from 1000 ppm (500 ppm, 250 ppm, etc).
(§4) Appropriate controls are included to show the growth of organisms without antifungal substances and antifungal activity of reference substances.
(In general: In agar dilution, organisms are placed on agar that contains the substance at set levels.)

In the next assay the test system is M. globosa CBS 7966. Put plainly: Agar dilution test, growth inhibition (MIC) of M. globosa CBS 7966. Particulars: MLN agar, 7 days at 30° C. It counts as cell-based. The method, then: as §1, §2, §3, §4
For the next assay, the system named is M. restricta CBS 7877. The experiment in a line: Agar dilution test, growth inhibition (MIC) of M. restricta CBS 7877. It counts as cell-based. Particulars: MLN agar, 7 days at 30° C. The method, then:
as §1, §2, §3, §4

Read-outs that look alike come from different tables or passages of the source.

Consider `CCCCCCCC(=O)OCCCO` [3-Hydroxypropyl caprylate, 3-hydroxypropyl caprylate], for which the MIC is given as 1,000 with M. globosa (M. globosa strain 7705); 1,000 with M. globosa (M. globosa strain 7966); 500 in the assay on M. globosa (M. globosa strain PM1); 2,000 in the assay on M. sympodialis (M. sympodialis strain 6171); 1,000 in the assay with M. sympodialis (M. sympodialis strain 7222); 2,000 in the assay on M. sympodialis (M. sympodialis strain 7979). The MIC in the assay on M. sympodialis (M. sympodialis strain 42132) and with M. restricta was 1,000 in each case.

On to `CCCCCCCC(=O)OCC` [Ethyl caprylate, ethyl caprylate], for which the MIC in the assay with M. globosa (M. globosa strain 7966), in the assay with M. globosa (M. globosa strain PM1), with M. sympodialis (M. sympodialis strain 6171), in the assay with M. sympodialis (M. sympodialis strain 7222), in the assay on M. sympodialis (M. sympodialis strain 7979) and in the assay with M. sympodialis (M. sympodialis strain 42132) was 1,000 throughout. Besides, the MIC with M. restricta is 4,000.

Consider `CCCCCCCC(=O)OCC(O)CO` (stereo not drawn) [Glyceryl monocaprylate, glyceryl monocaprylate], for which the MIC in the assay with M. globosa (M. globosa strain 7705) was 1,000; in the assay with M. globosa (M. globosa strain 7966), 1,000; in the assay on M. sympodialis (M. sympodialis strain 6171), 2,000; in the assay with M. sympodialis (M. sympodialis strain 7222), 1,000; in the assay on M. sympodialis (M. sympodialis strain 7979), 1,000; with M. sympodialis (M. sympodialis strain 42132) it was 1,000. For the same compound, in the assay with M. restricta, the MIC is listed as 300.

For the compound “polyglyceryl-3 caprylate [Polyglyceryl-3-caprylate]”, the “Minimal inhibitory concentration (MIC)” value is listed as 2.500 ppm with M. sympodialis DSM 6171 and 1.000 ppm with M. globosa CBS 7966.

On to sorbitan caprylate, for which the “Minimal inhibitory concentration (MIC)” value in the assay on M. sympodialis DSM 6171 is reported as 5.000 ppm; with M. globosa CBS 7966, 1.000 ppm; in the assay with M. restricta CBS 7877, 2.500 ppm.

Take xylityl sesquicaprylate: the entries for the “Minimal inhibitory concentration (MIC)” value in the assay with M. sympodialis DSM 6171, in the assay with M. globosa CBS 7966 and in the assay with M. restricta CBS 7877 were 2.500 ppm, 1.000 ppm and 2.500 ppm, respectively.
